Reference: US7745417B2, “Nucleosides or nucleotides having novel unnatural bases and use thereof” (RIKEN, priority 2002, dated 2010)

Key:
T7 RNA polymerase [1] = molecular target: T1, T7 RNA polymerase (Escherichia phage T7, UniProt P00573); conditions: 0.25 mM triphosphate; product of 100 nucleotides
Protocol: (§1) The reaction composition of T7 transcription may be the same as described in Ohtsuki et al., 2001. Details are as follows: 40 mM Tris-HCl (pH 8.0), 5 mM DTT, 24 mM MgCl2, 2 mM spermidine, 0.01% TritonX-100, 10 mM GMP, 1 mM NTPs, 0-0.25 mM 5IyTP, 0.2 μl/μl template DNA, and 2.5 U/μl T7 RNA polymerase (TaKaRa). After enzymatic reaction at 37° C. for 6 hours, each reaction product was purified by electrophoresis on an 8% polyacrylamide-7M urea gel.

T7 RNA polymerase [2] = molecular target: T1, T7 RNA polymerase; conditions: T7 transcription
Protocol: as §1
When T7 transcription reaction is performed in the presence of [α-^32P]ATP or [α-^32P]GTP, a nucleoside 3′-phosphate (Np) 5′-terminal to A or G is labeled with ^32P. Each gel-purified RNA was completely digested into Np by RNase T2 (Sigma). If 5Iy is introduced at residue 84 or 92, the nucleoside 3′-phosphate of 5Iy (5IyTp) is labeled with ^32P via [α-^32P]GTP, while if 5Iy is introduced at residue 87, 5IyTp is labeled via [α-^32P]ATP (FIG. 5, FIG. 6-b). For base composition analysis of 5Iy-containing RNAs, each of the completely digested products was separated by 2D-TLC and determined for each nucleotide content.
More specifically, to completely digest RNA, 0.75 μl RNase T2 solution (5 units/μl; 100 mM NaOAc pH 4.5, 10% glycerol) was added to 4.25 μl aqueous solution containing the labeled RNA and a 0.25 OD E. coli-derived tRNA mixture (Sigma), followed by overnight enzymatic reaction at 37° C. A part of the reaction solution was spotted onto a 10 cm×10 cm TLC plate (Funacell SF; Funakoshi Co., Ltd., Japan) and developed in two dimensions. Developing solutions for the first and second dimensions are isobutyric acid/ammonia/water (66:1:33 by volume) and 2-propanol/hydrochloric acid/water (70:15:15 by volume), respectively. The developed spots were detected and quantified using a bioimaging analyzer (BAS2500, Fuji Photo Film Co., Ltd., Japan).
Each value was calculated from the following equation. The theoretical numbers of nucleotides are in parentheses.

T7 RNA polymerase [3] = molecular target: T1, T7 RNA polymerase; conditions: for incorporation into RNA opposite s in the template: 1 mM, in competition with natural NTPs; for efficiency of transcription reaction: full-length 17-mer RNA, transcription using natural base pairing set to 100%; for misincorporation opposite natural nucleotides in the template: s-free control template
Protocol: The T7 transcription reaction was performed on 20 μl scale. The composition of T7 transcription is as follows: 40 mM Tris-HCl (pH 8.0), 5 mM DTT, 8 mM MgCl2, 2 mM spermidine, 0.01% TritonX-100, 10 mM GMP, 1 mM NTPs (N=A, G, C, U, Bio-yTP, Bio^2-yTP), 2 μCi [α-^32P]ATP, 0.5 μM double-stranded DNA, and 2.5 U/μl T7 RNA polymerase (TaKaRa) [Ohtsuki et al., 2001]. After enzymatic reaction at 37° C. for 3 hours, each reaction solution was supplemented with an equal volume of a 10M urea-containing TPE solution and warmed at 75° C. for 3 minutes to stop the reaction. Aliquot parts of the reaction solutions were then electrophoresed on a 20% polyacrylamide-7M urea gel and the [α-^32P]ATP-labeled reaction products were analyzed with a bioimaging analyzer (BAS2500, Fuji Photo Film Co., Ltd., Japan).

Raf-1 RBD (GST-RBD) [4] = molecular target: T2, Raf-1 RBD (GST-RBD) (Homo sapiens, UniProt P04049 P04049:51-131); experiment: EMSA; binding to 2 GST-RBD lower than XL; conditions: tags: GST fusion, expressed in E. coli; 2 per XL dimer), stated; label: 32P 5'-end
Protocol: (§2) The product (XL) obtained by crosslinking reaction an equal concentration (0.1 µM) mixture of 9A(5Iy87) and Raf-1 RBD was purified from a gel and analyzed for binding between XL and GSTRBD by gel shift assay. As a control of RNA 9A dimer, RNA 9A molecules were also linked in tandem to newly prepare RNA 9A×2 (200 nucleotides in total length), followed by gel shift assay. RNA 9A×2 is an RNA molecule of 200 nucleotides in total length that has two essential regions of RNA 9A (residues 1-80) in its molecule. It was prepared by transcription reaction using T7 RNA polymerase (Epicentre) and subcloned into vector pCR®II-TOPO (Invitrogen).
(§3) Electrophoresis was performed at room temperature and at a constant voltage (150 V) for about 2 hours (gel size: 16 cm×16 cm×1 mm). The composition of electrophoresis buffer is as follows: 12.5 mM Tris and 125 mM Glycine. Each electrophoresed gel was dried using a gel dryer and analyzed with a bioimaging analyzer (BAS2500, Fuji Photo Film Co., Ltd., Japan).

B-Raf RBD (GST-RBD) = B-Raf RBD (GST-RBD) (Homo sapiens, UniProt P15056 P15056:149-226); experiment: filter; 2 nM RNA; binds B-Raf RBD but does not inhibit B-Raf RBD/Ras interaction; conditions: tags: GST fusion, expressed in E. coli; label: 32P 5'-end; pseudoknot (estimated)
Sequence of B-Raf RBD (GST-RBD) (P15056 149-226, one chain of several): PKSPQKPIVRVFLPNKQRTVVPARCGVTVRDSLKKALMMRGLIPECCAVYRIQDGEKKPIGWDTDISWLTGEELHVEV
Protocol: The binding efficiency (Binding %) to various concentrations of protein was determined for each RNA aptamer (2 nM) by a filter binding method and plotted in the figure.

Raf-1 RBD (GST-RBD) [5] = molecular target: T2, Raf-1 RBD (GST-RBD); experiment: EMSA; no shift even at increased GST-RBD; conditions: tags: GST fusion, expressed in E. coli; 2 per XL dimer), stated; label: 32P 5'-end
Raf-1 RBD (GST-RBD) [6] = molecular target: T2, Raf-1 RBD (GST-RBD); experiment: EMSA; 1 XL binds 2 GST-RBD; higher activity than 9Ax2; conditions: tags: GST fusion, expressed in E. coli; 2 per XL dimer), stated; label: 32P 5'-end
Protocol: as §2, §3

T1 sequence (P00573 whole entry): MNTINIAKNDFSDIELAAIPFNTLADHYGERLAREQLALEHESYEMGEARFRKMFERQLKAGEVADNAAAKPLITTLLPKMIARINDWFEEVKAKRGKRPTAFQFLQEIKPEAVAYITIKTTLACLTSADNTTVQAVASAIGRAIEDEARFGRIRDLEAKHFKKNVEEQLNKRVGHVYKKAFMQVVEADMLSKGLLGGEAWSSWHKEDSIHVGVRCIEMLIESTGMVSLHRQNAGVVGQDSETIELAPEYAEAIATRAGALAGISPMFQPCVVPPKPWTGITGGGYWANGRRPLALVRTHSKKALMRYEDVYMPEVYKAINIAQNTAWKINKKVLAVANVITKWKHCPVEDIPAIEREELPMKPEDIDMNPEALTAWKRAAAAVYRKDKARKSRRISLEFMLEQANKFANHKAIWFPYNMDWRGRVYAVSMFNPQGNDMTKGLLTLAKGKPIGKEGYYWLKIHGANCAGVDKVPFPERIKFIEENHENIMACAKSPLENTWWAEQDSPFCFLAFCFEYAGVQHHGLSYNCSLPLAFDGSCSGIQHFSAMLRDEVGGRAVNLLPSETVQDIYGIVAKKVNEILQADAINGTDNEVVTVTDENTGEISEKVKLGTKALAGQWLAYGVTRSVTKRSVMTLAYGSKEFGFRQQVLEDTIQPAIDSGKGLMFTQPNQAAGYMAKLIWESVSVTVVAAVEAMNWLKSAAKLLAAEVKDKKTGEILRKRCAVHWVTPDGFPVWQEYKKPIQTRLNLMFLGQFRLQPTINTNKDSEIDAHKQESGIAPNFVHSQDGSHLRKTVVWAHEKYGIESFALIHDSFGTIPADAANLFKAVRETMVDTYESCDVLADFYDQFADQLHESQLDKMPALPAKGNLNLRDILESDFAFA

O=c1[nH]cc(C#Cc2ccccc2)cc1[C@@H]1O[C@H](COP(=O)(O)OP(=O)(O)OP(=O)(O)O)[C@@H](O)[C@H]1O [3-(β-D-ribofuranosyl)-5-(2-phenylethynyl)-pyridin-2(1H)-one 5′-triphosphate]
progress of transcription reaction with the unnatural triphosphate (T7 RNA polymerase [1]): confirmed to proceed

O=c1[nH]cc(I)cc1[C@@H]1O[C@H](COP(=O)(O)OP(=O)(O)OP(=O)(O)O)[C@@H](O)[C@H]1O [5IyTP, 3-(β-D-ribofuranosyl)-5-iodopyridin-2(1H)-one 5′-triphosphate]
misincorporated 5Iy, share of the total (T7 RNA polymerase [2]): less than 0.5%
selectivity of incorporation opposite s in the template (T7 RNA polymerase [2]; s-containing template): ≥ 97%
progress of transcription reaction with the unnatural triphosphate (T7 RNA polymerase [1]): proceeded efficiently

Biotinylated 5-(3-amino-1-propenyl)-3-(β-D -ribofuranosyl)-2-pyridone 5′-triphosphate [Bio-yTP]
incorporation into RNA opposite s in the template (T7 RNA polymerase [3]): competitively and selectively incorporated opposite s in the template
efficiency of transcription reaction (T7 RNA polymerase [3]): about 50%
misincorporation opposite natural nucleotides in the template (T7 RNA polymerase [3]): almost no misincorporation

Biotinylated 5-(3-amino-1-propynyl)-3-(β-D-ribofuranosyl)-2-pyridone 5′-triphosphate [Bio^2-yTP]
incorporation into RNA opposite s in the template (T7 RNA polymerase [3]): competitively and selectively incorporated opposite s in the template
efficiency of transcription reaction (T7 RNA polymerase [3]): about 50%
misincorporation opposite natural nucleotides in the template (T7 RNA polymerase [3]): no misincorporation

B1: RNA 9Ax2 (tandem 9A, 200 nt) (ssRNA)
RNA: GGGAGUGGAGGAAUUCAUCGAGGCAUAUGUCGACUCCGUCUUCCUUCAAACCAGUUAUAAAUUGGUUUUAGCAUAUGCCUUAGCGACAGCAAGCUUCUGCGGGAGUGGAGGAAUUCAUCGAGGCAUAUGUCGACUCCGUCUUCCUUCAAACCAGUUAUAAAUUGGUUUUAGCAUAUGCCUUAGCGACAGCAAGCUUCUGC
binding result (Raf-1 RBD (GST-RBD) [4]): binds

B2: RNA 9A (ssRNA)
RNA: GGGAGUGGAGGAAUUCAUCGAGGCAUAUGUCGACUCCGUCUUCCUUCAAACCAGUUAUAAAUUGGUUUUAGCAUAUGCCUUAGCGACAGCAAGCUUCUGC
binding result (B-Raf RBD (GST-RBD)): binds

B3: RNA OC (ssRNA)
RNA: GGGAGUGGAGGAAUUCAUCGAGGCAUCUGGGAACCCUAUCUUGCUUUUGGUAGCUGUAUUCACCUGUAACAGCAUAUGCCUUAGCGACAGCAAGCUUCUGC
binding result (Raf-1 RBD (GST-RBD) [5]): no binding

B4: RNA XL (UV-crosslinked dimer of 9A(5Iy87)) (ssRNA)
RNA 1: GGGAGUGGAGGAAUUCAUCGAGGCAUAUGUCGACUCCGUCUUCCUUCAAACCAGUUAUAAAUUGGUUUUAGCAUAUGCCUUAGCGACAGCAAGCUUCUGC
RNA 2: GGGAGUGGAGGAAUUCAUCGAGGCAUAUGUCGACUCCGUCUUCCUUCAAACCAGUUAUAAAUUGGUUUUAGCAUAUGCCUUAGCGACAGCAAGCUUCUGC
modifications: 5Iy at position 87, UV-crosslinked dimer
binding result (Raf-1 RBD (GST-RBD) [6]): binds
